Test results reported in patent US20110136145A1, “METHODS FOR PROMOTING FUSION AND REPROGRAMMING OF SOMATIC CELLS” (THE JOHNS HOPKINS UNIVERSITY, priority 2008, published 2011).
Entries after “also recorded” stand apart in the source; their conditions may differ.

Tested on: ESC-induced Oct4-GFP re-activation in NSCs
Experiment: CLEAR analysis of ESC fusion-induced reprogramming (PEG-induced fusion of Z-Red ESCs and CIPOE NSCs, flow cytometry)
From the text: CLEAR strategy uses engineered ESCs and NSCs for monitoring fusion-induced DsRed expression and reprogramming-induced GFP expression (FIG. 1A). Z-Red ESCs were derived from a clonal ESC line containing one copy of a transgene (CAG-loxP-LacZ::neomycin-polyA-loxP-DsRed.T3) as a Cre recombination excision reporter.
Adult NSCs were isolated from Oct4-GFP (GOF 18-A PE-EGFP) transgenic mice and transduced by retroviruses to stably co-express Cre and the puromycin resistance gene through a bicistronic cassette (termed CIPOE NSCs hereafter). Somatic cells with Oct4-GFP transgene integration have been used previously to investigate reprogramming, in which the regulatory elements of Oct4 direct reliable GFP reactivation from somatic genomes in reprogrammed ESC-like hybrid cells (also see FIG. 3). Multiple CIPOE NSC lines from Oct4-GFP transgenic mice were established, characterized and used for subsequent cell fusion experiments.
To quantitatively analyze the reprogramming-induced Oct4-GFP re-activation, dual-color flow cytometry was used to display and measure the cell population that underwent PEG-induced cell fusion. Viable cells were identified by their typical FSC (Forward Scatter) and SSC (Side Scatter) properties. To ensure appropriate gating for […] and DsRed+ events and to compensate the spectrum crossover of GFP and DsRed signals, the system was first calibrated using multiple control cells, including Z-Red ESCs, CIPOE NSCs, mixed Z-Red ESCs and CIPOE NSCs without PEG. Z-Red ESCs transfected with a constitutive Cre expression plasmid, and CIPOE NSCs transfected with a Cre excision reporter plasmid (FIG. 4A).
ESC fusion-induced Oct4 re-activation from NSCs was quantitatively measured using two different approaches. In the first approach, the reprogramming frequency (Rf) is determined by the ratio of GFP DsRed+ cells to total DsRed+ cells. […] In the second approach, the reprogramming efficacy is determined by the distribution of GFP fluorescence intensities of individual cells from the DsRed+ population (FIG. 4C). This analysis provides a measurement of the efficiency of Oct4-GFP re-activation in NSCs after successful fusion.
The protocol was optimized for PEG-induced cell fusion between ESCs and NSCs to achieve maximum efficiency and minimal toxicity. Equal numbers of ESCs and NSCs were mixed thoroughly and spun down in PBS. The pellet was loosened by gentle tapping and 50% PEG (500 μl for 1×10^7 cells) was added to the cells continuously over one minute while swirling the mixture in 37° C. water bath Next, 2 ml of ESC medium was layered on top of PEG-cell mixture and one-minute incubation in 37° C., followed by low-speed centrifugation at 1,800 rpm for 5 minutes. After removing the supernatant, the pellet was incubated with ESC medium for one minute, washed, resuspended and plated onto gelatin-coated dishes and grown in Dubelcco's Modified Eagle's Medium, 15% fetal bovine serum supplemented with mouse leukemia inhibitory factor (ESGRO), 0.1 mM nonessential amino acids, 0.1 mM β-mercaptoethanol, and 50 U/ml penicillin/50 μg/ml streptomycin (ESC medium). […] The following pharmacological inhibitors were applied in ESC-fusion experiments only during the first 48 hours after fusion. DMOG (5-10 μM; BioMol), Anacardic acid (5-10 μM; Calbiochem), Trichostatin A (TSA, 100 nM-1 μM; Sigma) and azidothymidine (AZT, 1-5 μM; Sigma).

[1] = 10 μM, 48-hour treatment, analyzed at day 4, vs DMSO

Question: `COC(=O)CNC(=O)C(=O)OC` [DMOG, dimethyloxalylglycine] was tested. Which “Effects (on reprogramming)” value (5 μM, applied only during the first 48 hours after fusion) did it give?
Answer: strong reprogramming deficit

Question: And the reprogramming efficacy [1]?
Answer: significant decreases

Question: And the reprogramming frequency [1]?
Answer: significant decreases

Question: And the “ESC-induced Oct4 re-activation in NSCs” value (inhibitor treatment after fusion)?
Answer: considerably reduced; also recorded: attenuates
